Data on 22 molecules can be found in patent US11129827B2 (priority 2017, dated 2021).

Experiment [1] concerns the target MAGL (Mus musculus (Mouse), UniProt O35678). Nature of the experiment: in vivo. The note with it: po, read-out: MAGL (mouse) % inh. 5 mg/kg.
Experiment [2] has as its target FAAH (Mus musculus (Mouse), UniProt O08914). The experiment is described as follows: in vivo. As to conditions: po, read-out: FAAH (mouse) % inh. 5 mg/kg.
Experiment [3] deals with MAGL (Homo sapiens (Human), UniProt Q99685). The experiment is described as follows: biochemical. As to conditions: for inhibition at 1 µM: read-out: MAGL (human) % inh. 1 μM.
Experiment [4] concerns the target FAAH (Homo sapiens (Human), UniProt O00519). The experiment is described as follows: biochemical. As to conditions: for inhibition at 1 µM: read-out: FAAH (human) % inh. 1 μM.

Structures are written as SMILES. Where two headings read alike, the source gives them in different places.

`NC(=O)c1cncc(OC(=O)N2CCC3(CCN(Cc4cc(Cl)ccc4C(F)(F)F)C3)CC2)c1` [Example 4, 5-Carbamoylpyridin-3-yl 2-(5-chloro-2-(trifluoromethyl)benzyl)-2,8-diazaspiro[4.5]decane-8-carboxylate]: the inhibition at 5 mg/kg in experiment [1] and in experiment [2] was more than 75% throughout. The inhibition at 1 µM in experiment [3] and in experiment [4] was more than 75% in each case. In addition, the half-maximal inhibitory concentration (IC50) in experiment [3] (read-out: MAGL (human) IC50) and in experiment [4] (read-out: FAAH (human) IC50) was less than 100 nM in each case.
Turning to `O=C(Oc1cncc(C(F)(F)F)c1)N1CCC2(CC1)CN(Cc1cccc(Oc3nc4ccccc4s3)c1)C2` [Example 7, 5-(Trifluoromethyl)pyridin-3-yl 2-(3-(benzo[d]thiazol-2-yloxy)benzyl)-2,7-diazaspiro[3.5]nonane-7-carboxylate], the inhibition at 5 mg/kg is 25 to 50% in experiment [1] and more than 75% in experiment [2]. Besides, the inhibition at 1 µM in experiment [3] and in experiment [4] was more than 75% in each case. Besides, the IC50 in experiment [3] (read-out: MAGL (human) IC50) and in experiment [4] (read-out: FAAH (human) IC50) was less than 100 nM throughout.
Take `CC(C)Oc1cc(CN2CCN(C(=O)Oc3cncc(NS(C)(=O)=O)c3)CC2)ccc1Cl` [Example 15, 5-(Methylsulfonamido)pyridin-3-yl 4-(4-chloro-3-isopropoxybenzyl)piperazine-1-carboxylate]: the inhibition at 5 mg/kg in experiment [1] and in experiment [2] was 0 to 25% in each case. The inhibition at 1 µM in experiment [3] and in experiment [4] was more than 75% in each case. Further, the IC50 in experiment [3] (read-out: MAGL (human) IC50) was 100 to 1000 nM; in experiment [4], less than 100 nM.
Regarding `CC(C)Oc1ccc(CN2CCN(C(=O)Oc3cncc(C(N)=O)c3)CC2)c(OC(F)(F)F)c1` [Example 18, 5-Carbamoylpyridin-3-yl 4-(4-isopropoxy-2-(trifluoromethoxy)benzyl)piperazine-1-carboxylate], the inhibition at 5 mg/kg in experiment [1] and in experiment [2] was more than 75% in each case. The inhibition at 1 µM in experiment [3] and in experiment [4] was more than 75% in each case. The IC50 in experiment [3] (read-out: MAGL (human) IC50) and in experiment [4] (read-out: FAAH (human) IC50) was 100 to 1000 nM in each case.
For the molecule `C[C@@H]1CN(Cc2cc(F)cc(C(F)(F)F)c2)CCN1C(=O)Oc1cncc(C(N)=O)c1` [Example 20, 5-Carbamoylpyridin-3-yl (R)-4-(3-fluoro-5-(trifluoromethyl)benzyl)-2-methylpiperazine-1-carboxylate], the inhibition at 5 mg/kg in experiment [1] and in experiment [2] was more than 75% in each case. The inhibition at 1 µM in experiment [3] and in experiment [4] was more than 75% in each case. Further, the concentration for half-maximal inhibition (IC50) in experiment [3] (read-out: MAGL (human) IC50) and in experiment [4] (read-out: FAAH (human) IC50) was less than 100 nM each time.
Consider `O=C(Oc1cncc(C(F)(F)F)c1)N1CCC2(CC1)CN(Cc1cccc(Oc3cc(Cl)cc(Cl)c3)c1)C2` [Example 35, 5-(Trifluoromethyl)pyridin-3-yl 2-(3-(3,5-dichlorophenoxy)benzyl)-2,7-diazaspiro[3.5]nonane-7-carboxylate], for which the inhibition at 1 µM in experiment [3] and in experiment [4] was more than 75% each time.
For the molecule `NC(=O)c1cncc(OC(=O)N2CCC3(CCN(Cc4ccc(Cl)c(Cl)c4)C3)CC2)c1` [Example 36, 5-Carbamoylpyridin-3-yl 2-(3,4-dichlorobenzyl)-2,8-diazaspiro[4.5]decane-8-carboxylate], the inhibition at 5 mg/kg was 25 to 50% in experiment [1] and more than 75% in experiment [2]. The inhibition at 1 µM in experiment [3] and in experiment [4] was more than 75% each time. Besides, the IC50 in experiment [3] (read-out: MAGL (human) IC50) and in experiment [4] (read-out: FAAH (human) IC50) was less than 100 nM throughout.
Regarding `O=C(Oc1cncc(C(F)(F)F)c1)N1CCC2(CC1)CN(Cc1cccc(Oc3ccc(C(F)(F)F)cn3)c1)C2` [Example 37, 5-(Trifluoromethyl)pyridin-3-yl 2-(3-((5-(trifluoromethyl)pyridin-2-yl)oxy)benzyl)-2,7-diazaspiro[3.5]nonane-7-carboxylate], the inhibition at 1 µM in experiment [3] and in experiment [4] was more than 75% in each case.
In the case of `O=C(Oc1cncc(C(F)(F)F)c1)N1CCC2(CC1)CN(Cc1cccc(Oc3cncc(C(F)(F)F)c3)c1)C2` [Example 38, 5-(Trifluoromethyl)pyridin-3-yl 2-(3-((5-(trifluoromethyl)pyridin-3-yl)oxy)benzyl)-2,7-diazaspiro[3.5]nonane-7-carboxylate], the inhibition at 5 mg/kg in experiment [1] was 0 to 25%; in experiment [2], more than 75%. Also, the inhibition at 1 µM in experiment [3] and in experiment [4] was more than 75% throughout. Also, the IC50 in experiment [3] (read-out: MAGL (human) IC50) and in experiment [4] (read-out: FAAH (human) IC50) was less than 100 nM in each case.
In the case of `O=C(Oc1cncc(C(F)(F)F)c1)N1CCC2(CC1)CN(Cc1cccc(Oc3ccc(C(F)(F)F)nc3)c1)C2` [Example 39, 5-(Trifluoromethyl)pyridin-3-yl 2-(3-((6-(trifluoromethyl)pyridin-3-yl)oxy)benzyl)-2,7-diazaspiro[3.5]nonane-7-carboxylate], the inhibition at 1 µM in experiment [3] and in experiment [4] was more than 75% in each case. Moreover, the IC50 in experiment [3] (read-out: MAGL (human) IC50) and in experiment [4] (read-out: FAAH (human) IC50) was 100 to 1000 nM in each case.
Consider `O=C(Oc1cncc(C(F)(F)F)c1)N1CCC2(CC1)CN(Cc1cccc(Oc3cccc(Cl)c3)c1Cl)C2` [Example 40, 5-(Trifluoromethyl)pyridin-3-yl 2-(2-chloro-3-(3-chlorophenoxy)benzyl)-2,7-diazaspiro[3.5]nonane-7-carboxylate], for which the concentration for half-maximal inhibition (IC50) was less than 100 nM in experiment [3] and 100 to 1000 nM in experiment [4] (read-out: FAAH (human) IC50). Further, the inhibition at 1 µM in experiment [3] and in experiment [4] was more than 75% in each case.
Take `O=C(Oc1cncc(C(F)(F)F)c1)N1CCC2(CC1)CN(Cc1cccc(Oc3ccccc3)c1Cl)C2` [Example 41, 5-(Trifluoromethyl)pyridin-3-yl 2-(2-chloro-3-phenoxybenzyl)-2,7-diazaspiro[3.5]nonane-7-carboxylate]: the inhibition at 1 µM in experiment [3] and in experiment [4] was more than 75% each time.
For the molecule `O=C(Oc1cncc(C(F)(F)F)c1)N1CCN(Cc2cc(Cl)ccc2C(F)(F)F)CC1` [Example 44, 5-(Trifluoromethyl)pyridin-3-yl 4-(5-chloro-2-(trifluoromethyl)benzyl)piperazine-1-carboxylate], the inhibition at 1 µM in experiment [3] and in experiment [4] was more than 75% each time. Also, the IC50 in experiment [3] (read-out: MAGL (human) IC50) and in experiment [4] (read-out: FAAH (human) IC50) was 100 to 1000 nM throughout.
As to `N#Cc1cncc(OC(=O)N2CCN(Cc3cccc(Oc4ncccn4)c3)CC2)c1` [Example 50, 5-Cyanopyridin-3-yl 4-(3-(pyrimidin-2-yloxy)benzyl)piperazine-1-carboxylate], the IC50 in experiment [3] was less than 100 nM; in experiment [4] (read-out: FAAH (human) IC50) it was 100 to 1000 nM. Besides, the inhibition at 1 µM in experiment [3] and in experiment [4] was more than 75% each time.
Consider `CC(=O)Nc1cncc(OC(=O)N2CCN(Cc3ccc(Cl)c(OC(C)C)c3)CC2)c1` [Example 52, 5-Acetamidopyridin-3-yl 4-(4-chloro-3-isopropoxybenzyl)pipera-zine-1-carboxylate], for which the inhibition at 5 mg/kg is 0 to 25% in experiment [1] and more than 75% in experiment [2]. For the same molecule, the IC50 is less than 100 nM in experiment [3] and 100 to 1000 nM in experiment [4] (read-out: FAAH (human) IC50). In addition, the inhibition at 1 µM in experiment [3] and in experiment [4] was more than 75% in each case.
For `CC(C)Oc1cc(CN2CCN(C(=O)Oc3cncc(C(N)=O)c3)[C@H](C)C2)ccc1Cl` [Example 56, (R)-5-Carbamoylpyridin-3-yl 4-(4-chloro-3-isopropoxybenzyl)-2-methylpiperazine-1-carboxylate], the inhibition at 1 µM in experiment [3] and in experiment [4] was more than 75% throughout. Also, the IC50 in experiment [3] (read-out: MAGL (human) IC50) and in experiment [4] (read-out: FAAH (human) IC50) was 100 to 1000 nM throughout.
Turning to `Cc1c(CN2CCN(C(=O)Oc3cncc(C(N)=O)c3)[C@H](C)C2)cccc1C(F)(F)F` [Example 58, (R)-5-Carbamoylpyridin-3-yl 2-methyl-4-(2-methyl-3-(trifluoromethyl)benzyl)piperazine-1-carboxylate], the inhibition at 1 µM in experiment [3] and in experiment [4] was more than 75% in each case. In addition, the 50% inhibitory concentration (IC50) in experiment [3] (read-out: MAGL (human) IC50) was 100 to 1000 nM; in experiment [4], less than 100 nM.
As for `Cc1c(CN2CCN(C(=O)Oc3cncc(C(N)=O)c3)[C@@H](C)C2)cccc1C(F)(F)F` [Example 59, (S)-5-Carbamoylpyridin-3-yl 2-methyl-4-(2-methyl-3-(trifluoromethyl)benzyl)piperazine-1-carboxylate], the results for the inhibition at 1 µM in experiment [3] and in experiment [4] were more than 75% and 50 to 75%, respectively.
In the case of `C[C@@H]1CN(Cc2cccc(C(F)(F)F)c2Cl)CCN1C(=O)Oc1cncc(C(N)=O)c1` [Example 66, (R)-5-Carbamoylpyridin-3-yl 4-(2-chloro-3-(trifluoromethyl)benzyl)-2-methylpiperazine-1-carboxylate], the inhibition at 1 µM in experiment [3] and in experiment [4] was more than 75% in each case. In addition, the 50% inhibitory concentration (IC50) in experiment [3] (read-out: MAGL (human) IC50) and in experiment [4] (read-out: FAAH (human) IC50) was less than 100 nM in each case.
Turning to `Cc1c(OC(=O)N2CCN(Cc3cccc(C(F)(F)F)c3C)C[C@H]2C)cncc1C(N)=O` [Example 82, 5-Carbamoyl-4-methylpyridin-3-yl (R)-2-methyl-4-(2-methyl-3-(trifluoromethyl)benzyl)piperazine-1-carboxylate], the inhibition at 1 µM in experiment [3] is 0 to 25%; in experiment [4], more than 75%.
Regarding `Cc1c(C#N)cncc1OC(=O)N1CCN(Cc2cccc(C(F)(F)F)c2C)C[C@H]1C` [Example 83, 5-Cyano-4-methylpyridin-3-yl (R)-2-methyl-4-(2-methyl-3-(trifluoromethyl)benzyl)piperazine-1-carboxylate], the inhibition at 1 µM in experiment [3] and in experiment [4] was more than 75% in each case. For the same molecule, the IC50 in experiment [3] (read-out: MAGL (human) IC50) is 100 to 1000 nM; in experiment [4] it was less than 100 nM.
For `C[C@@H]1CN(Cc2cccc(Oc3ncccn3)c2)CCN1C(=O)Oc1cncc(C#N)c1` [Example 84, 5-Cyanopyridin-3-yl (R)-2-methyl-4-(3-(pyrimidin-2-yloxy)benzyl)piperazine-1-carboxylate], the figures for the IC50 in experiment [3] and in experiment [4] (read-out: FAAH (human) IC50) were less than 100 nM and 100 to 1000 nM, respectively. The inhibition at 1 µM in experiment [3] and in experiment [4] was more than 75% each time.
